Assay results: patent publication US9408871B2, “Methods for inhibiting complement activation and uses thereof” (THE UNIVERSITY OF BRITISH COLUMBIA, priority 2013, dated 2016)

Key:
[1] = test system: terminal pathway (TP) of complement; assay: serum-based terminal pathway (TP) hemolytic assay (2% NHS, C5b,6, chicken erythrocytes); type: cell-based, human
Description: Erythrocyte lysis assays were used to measure complement-mediated hemolytic activity. Erythrocyte (RBC) lysis assays as previously described^18,37 were used to measure complement activity. For alternative pathway assays and for total hemolytic activity assays, unsensitized rabbit erythrocytes were used. Chicken erythrocytes were used for the terminal pathway assays.
Erythrocytes were washed three times in GVB with the reaction buffers as indicated, and counted using the Advia 120 Hematology System from Siemens (Siemens, Erlangen, Germany). Reactions in 300 μL were allowed to proceed for 30 min at 37° C., after which unlysed cells were pelleted by centrifugation at 600×g. Erythrocyte lysis, reflected by the released hemoglobin in the supernatant, was quantified by measuring the absorbance at 405 nm using the Mithras LB 940 microplate reader from Berthold Technologies (Bad Wildbad, Germany). Percent lysis was determined relative to the control of 100% lysis with H2O. For total hemolytic and terminal pathway (TP) assays, the concentrations of NHS and C5b,6 to initiate complement activation were established from pilot studies to obtain ˜70-80% erythrocyte lysis at 30 min.
For serum-based terminal pathway (TP) hemolytic assays, components were diluted in GVB containing 10 mM EDTA (GVB-E), the latter added to prevent upstream complement activation and generation of endogenous C5b,6. 2% NHS was used as the source of C7, C8, and C9, and hemolysis of chicken erythrocytes (cRBC) (3.3×10^8 cells/mL) was initiated by addition of exogenous purified C5b,6, the concentration of which was determined from pilot studies to yield ˜70-80% lysis at 30 min. No C5b,6 activity was detected in the NHS prior to initiating the reaction. For some experiments, instead of NHS, purified terminal pathway complement components were used in the TP assays. In these assays, in a final volume of 300 uL GVB, lysis was achieved by the sequential addition of the following components: cRBC (3.3×10^8 cells/mL), C5b,6 (20 μM), C7 (15 nM), C8 (10 nM), and C9 (25 nM). The unlysed cell pellet was removed by centrifugation and lysis was measured immediately after the 30-minute reaction. A standard curve for the terminal pathway assay using serum as the source of complement (FIG. 2) was generated using a fixed serum concentration at 2%, and increasing concentrations of purified C5b,6 dose-dependently lysed chicken erythrocytes after 30 min at 37° C. […] of purified C5b,6 was therefore used to fix baseline lysis at ˜80% to allow assessment of the inhibitory effects of polyphosphate in serum.
TP activity in NHS(2%), measured by lysis of cRBC, was initiated by adding a limiting amount of exogenous purified C5b,6 (250 pM) to achieve 70-80% lysis after 30 min. A molar excess of EDTA was used to prevent upstream activation of complement and generation of endogenous C5b,6. In the absence of C5b,6, there was no detectable complement-mediated cRBC lysis. P1 at concentrations ranging from 0.1 to 1000 μM, had no effect on complement-mediated hemolysis in NHS via the TP (FIG. 5A). By contrast, polyphosphate>1000 inhibited the TP in serum in a concentration-dependent manner, with an IC50 of ˜10 μM polyphosphate>1000 (dotted lines) (calculated based on monomeric phosphate).

[2] = molecular target: T1, C5b,6 (Homo sapiens, UniProt P01031+P13671); assay: analytic gel filtration; type: binding; details: 10 mM
T1 construct: C5 convertase that cleaves C5 into C5a and C5b; human plasma-derived C5b,6, C7, C8, and C9; purchased Complement Technology, Inc. (Tyler, Tex., USA); host or cells: human plasma
Protocol: Proteins were stored in their stock solution buffers. The C5b,6 buffer consisted of 10 mM HEPES, 120 mM NaCl, pH 7.2. The C7 buffer consisted of 10 mM Na3PO4, 145 mM NaCl, at pH 7.3 (PBS). The buffers were filtered through a 0.22 μm pore diameter Stericup and Steritop Express™ PLUS filter from Millipore (Billerica, Mass., USA).
Proteins were thawed at 37° C. for 10 min. An excess amount of protein was removed from the stock vial and transferred to a clean 600 μL microtube. C7 was diluted to […]. The proteins were centrifuged at 20,817 g for 15 min and under a Class 2A Biosafety Cabinet, 100 μL fractions were transferred to clean microtubes. The following samples were analyzed by gel filtration:
For all samples, 20 μg of the protein in 100 μL of their respective buffers was prepared. For samples containing polyphosphate, 8 μL of 400 mM polyP>1000 was mixed with 2 μL of 5× concentrated HBS (for C5b,6) or PBS (for C7), yielding a solution of 320 mM polyP>1000 in HBS or PBS. 3.13 μL of the polyphosphate solution was added to 100 μL of either C5b,6 or C7, for a final polyP>1000 concentration of 9.71 mM. […]
The gel filtration apparatus, ÄKTAmicro System from G.E. Healthcare (Buckinghamshire, UK), was equilibrated with either HBS (0.22 μm filtered) for C5b,6 or PBS (0.22 μm filtered) for C7 for at least 1 hour, at 5 μL per minute. […] Protein was monitored with UV absorbance at 280 nm. […]

T1 sequence (P01031 19-673 limits assumed): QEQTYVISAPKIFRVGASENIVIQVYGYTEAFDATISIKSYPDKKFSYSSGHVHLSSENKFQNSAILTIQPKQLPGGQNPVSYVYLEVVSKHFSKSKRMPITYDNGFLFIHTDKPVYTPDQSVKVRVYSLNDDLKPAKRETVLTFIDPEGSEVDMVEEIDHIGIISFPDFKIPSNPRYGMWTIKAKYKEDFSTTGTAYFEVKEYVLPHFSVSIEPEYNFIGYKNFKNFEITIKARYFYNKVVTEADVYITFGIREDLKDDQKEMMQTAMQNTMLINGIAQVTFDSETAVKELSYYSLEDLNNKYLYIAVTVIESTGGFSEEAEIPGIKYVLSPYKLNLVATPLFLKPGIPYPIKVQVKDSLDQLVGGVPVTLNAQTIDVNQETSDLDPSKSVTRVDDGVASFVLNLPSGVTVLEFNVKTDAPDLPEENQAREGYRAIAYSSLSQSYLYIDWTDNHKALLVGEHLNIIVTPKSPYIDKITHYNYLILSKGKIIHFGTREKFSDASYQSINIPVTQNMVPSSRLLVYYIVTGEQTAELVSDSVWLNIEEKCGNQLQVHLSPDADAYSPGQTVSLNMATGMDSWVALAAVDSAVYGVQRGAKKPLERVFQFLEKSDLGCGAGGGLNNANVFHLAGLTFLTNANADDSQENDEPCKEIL
T1 sequence (P01031 752-1676 limits assumed): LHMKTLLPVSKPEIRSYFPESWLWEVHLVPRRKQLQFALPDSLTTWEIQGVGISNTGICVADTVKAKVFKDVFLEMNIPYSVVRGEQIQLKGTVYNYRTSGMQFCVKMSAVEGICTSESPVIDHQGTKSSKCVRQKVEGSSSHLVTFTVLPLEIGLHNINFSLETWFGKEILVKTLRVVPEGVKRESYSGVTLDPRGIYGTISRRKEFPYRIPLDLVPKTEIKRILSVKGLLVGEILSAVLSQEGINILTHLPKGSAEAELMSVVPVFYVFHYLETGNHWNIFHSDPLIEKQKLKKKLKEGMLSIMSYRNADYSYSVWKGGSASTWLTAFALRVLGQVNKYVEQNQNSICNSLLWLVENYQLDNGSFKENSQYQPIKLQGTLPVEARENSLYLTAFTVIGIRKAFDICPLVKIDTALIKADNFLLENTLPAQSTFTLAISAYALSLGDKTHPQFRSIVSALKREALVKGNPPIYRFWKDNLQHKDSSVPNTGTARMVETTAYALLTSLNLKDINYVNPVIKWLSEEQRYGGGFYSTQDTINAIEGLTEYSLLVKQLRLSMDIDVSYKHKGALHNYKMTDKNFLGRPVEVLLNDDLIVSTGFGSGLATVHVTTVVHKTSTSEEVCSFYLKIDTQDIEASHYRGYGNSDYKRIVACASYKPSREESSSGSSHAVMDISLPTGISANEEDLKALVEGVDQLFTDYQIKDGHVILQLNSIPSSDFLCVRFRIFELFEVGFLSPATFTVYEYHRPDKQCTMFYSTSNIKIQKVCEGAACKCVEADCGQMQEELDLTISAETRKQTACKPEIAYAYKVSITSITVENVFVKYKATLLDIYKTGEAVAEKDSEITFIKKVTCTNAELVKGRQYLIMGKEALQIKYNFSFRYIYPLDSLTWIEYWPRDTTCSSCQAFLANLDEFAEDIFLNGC
T1 sequence (P13671 22-934): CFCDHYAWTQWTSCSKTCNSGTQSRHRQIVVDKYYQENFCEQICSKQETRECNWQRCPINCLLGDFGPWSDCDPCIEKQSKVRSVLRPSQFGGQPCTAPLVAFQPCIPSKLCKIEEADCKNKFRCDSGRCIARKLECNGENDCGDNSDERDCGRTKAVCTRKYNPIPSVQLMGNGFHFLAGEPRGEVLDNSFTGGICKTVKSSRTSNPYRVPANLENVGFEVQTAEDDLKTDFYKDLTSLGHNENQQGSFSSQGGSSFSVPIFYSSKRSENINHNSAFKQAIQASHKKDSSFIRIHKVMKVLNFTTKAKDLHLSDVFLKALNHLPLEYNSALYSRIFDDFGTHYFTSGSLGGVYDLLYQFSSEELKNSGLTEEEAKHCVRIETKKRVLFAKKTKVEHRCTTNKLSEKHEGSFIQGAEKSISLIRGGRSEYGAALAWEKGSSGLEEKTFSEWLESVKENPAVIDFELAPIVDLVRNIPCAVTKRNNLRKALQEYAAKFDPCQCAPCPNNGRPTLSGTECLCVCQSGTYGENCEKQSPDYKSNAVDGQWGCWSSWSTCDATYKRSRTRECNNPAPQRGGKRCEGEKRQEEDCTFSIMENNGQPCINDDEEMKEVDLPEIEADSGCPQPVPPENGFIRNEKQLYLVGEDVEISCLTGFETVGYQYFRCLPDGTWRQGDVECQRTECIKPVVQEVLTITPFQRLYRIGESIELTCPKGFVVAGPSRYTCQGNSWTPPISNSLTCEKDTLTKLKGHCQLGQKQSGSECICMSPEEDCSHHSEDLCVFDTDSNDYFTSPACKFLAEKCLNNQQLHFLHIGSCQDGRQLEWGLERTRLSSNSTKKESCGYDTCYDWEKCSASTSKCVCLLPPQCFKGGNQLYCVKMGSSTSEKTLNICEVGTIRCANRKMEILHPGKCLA

O=P(O)(O)O [P1, Orthophosphate]
effect on TP hemolytic activity at equivalent concentration ([1]; 100 μM (based on the monomeric form)): had no effect
effect on complement-mediated hemolysis in NHS via the TP ([1]; 0.1 to 1000 μM, 2% NHS, 250 pM C5b,6, cRBC): had no effect
effect of co-incubated P1 on suppressive properties of polyphosphate>1000 ([1]; up to 2 mM P1 with 200 μM polyphosphate>1000): had no effect on the suppressive properties
effect on C5b,6 elution profile in gel filtration [2]: did not affect the retention time or elution profile
